Values of other authors, collected in patent US6559165B1, “Methods for treating bulimia using optically pure (−) norcisapride” (priority 1998, dated 2003).

How the values were obtained:
[1] = co-administration with ketoconazole

portion of dose metabolized (humans, oxidative N-dealkylation or aromatic hydroxylation): More than 90%
bioavailability (oral administration to humans, rapid first-pass metabolism in the liver): 40-50%
increase of steady-state plasma levels [1]: 8 fold
SMILES: COc1cc(N)c(Cl)cc1C(=O)N[C@H]1CCN(CCCOc2ccc(F)cc2)C[C@H]1OC (racemic) [(±) Cisapride, cis-4-amino-5-chloro-N-[1-[3-(4-fluorophenoxy)propyl]-3-methoxy-4-piperidinyl]-2-methoxybenzamide]
